Data from ChEMBL document CHEMBL1909625, “Sesquiterpene lactones from Inula falconeri, a plant endemic to the Himalayas, as potential anti-inflammatory agents” (Eur J Med Chem, 2011).

Legend:
[1] = test system: RAW264.7; test: Cytotoxicity against mouse RAW264.7 cells at antiinflammatory IC50 level by MTT assay; assay type: cell-based
[2] = test system: RAW264.7; test: Antiinflammatory activity in mouse RAW264.7 cells assessed as inhibition of LPS-induced NO production pretreated for 30 mins before LPS challenge measured 24 hrs after LPS challenge by Griess reaction method; assay type: functional, cell-based

Row | IC50 [2] | Structure (SMILES) | Activity [1]
1 | 20.3 µM | C[C@@H]1C[C@@H]2OC(=O)[C@H](C)[C@H]2[C@H](O)[C@]2(C)C(=O)CC[C@@H]12 | Non-toxic
2 | 3.94 µM | C=C1C[C@H]2OC(=O)C(=C)[C@H]2C[C@@H]2[C@@H]1CC[C@@]2(C)O | Non-toxic
3 | 0.29 µM | C=C1C(=O)O[C@H]2CC(=C)[C@H]3CC[C@@](C)(O)[C@@H]3[C@@H](O)[C@H]12 | Non-toxic
4 | 0.13 µM | C=C1C(=O)O[C@H]2C=C(C)[C@H]3CC[C@@](C)(O)[C@@H]3[C@@H](O)[C@H]12 | Non-toxic
5 | 35.5 µM | C=C(CCCOC(=O)CCCCCCC/C=C\C/C=C\CCCCC)[C@@H]1CC(C)(C)[C@H]1CCC(C)=O | Non-toxic
6 | 6.4 µM | C=C1C(=O)O[C@@H]2C[C@@]3(C)O[C@@H]3CC[C@@]3(C)O[C@H]3C[C@@H]12 | Non-toxic
7 | 4.7 µM | C=C1C(=O)O[C@@H]2C[C@@]3(C)[C@@H](O)C[C@@H](OC(=O)C=C(C)C)C(=C)[C@@H]3C[C@H]12 | Non-toxic
8 | 0.87 µM | C=C1C(=O)O[C@H]2C[C@@H](C)C(CCC(C)O)=CC[C@H]12 (some centres not stated) | Non-toxic
9 | 0.81 µM | C=C1C(=O)O[C@@H]2C[C@H](C)C(CCC(C)OC(C)=O)=CC[C@H]12 (some centres not stated) | Non-toxic
10 | 21.9 µM | CC(=O)CCC1=C[C@@H](O)[C@@H]2[C@H](C)C(=O)O[C@@H]2C[C@@H]1C | Non-toxic
11 | 18.9 µM | C=C1C(=O)O[C@@H]2C[C@H](C)[C@]3(CCC(C)O)O[C@@H]3C[C@H]12 (some centres not stated) | Non-toxic
12 | 10.8 µM | C[C@@H]1C[C@@H]2OC(=O)[C@H](C)[C@H]2C[C@]2(C)C(=O)CC[C@@H]12 | Non-toxic
13 | 0.36 µM | C=C1C(=O)O[C@H]2C[C@@H](C)[C@@H]3CC[C@H](O)[C@@]3(C)[C@@H](OC(C)=O)[C@H]12 | Non-toxic
14 | 2.05 µM | C=C1C(=O)O[C@H]2C[C@@H](C)[C@@H]3CC[C@H](OC(C)=O)[C@@]3(C)[C@@H](O)[C@H]12 | Non-toxic
15 | 41.2 µM | C=C1C[C@@H]2OC(=O)[C@H](C)[C@H]2C[C@@H]2[C@@H]1CC[C@@]2(C)O | Non-toxic
16 | 19.5 µM | C=C1C[C@@H]2OC(=O)[C@@H](C)[C@H]2C[C@@H]2[C@@H]1CC[C@@]2(C)O | Non-toxic
17 | 0.11 µM | C=C1C(=O)O[C@H]2C[C@H](C)[C@@H]3CC[C@@]4(C)O[C@@]34C[C@H]12 | Non-toxic

Row | IC50 [2] | Structure (SMILES) | Activity [1]
18 | 7.3 µM | C=C1C[C@H]2OC(=O)C(=C)[C@H]2C[C@@H]2[C@@H]1CC[C@]2(C)O | Non-toxic
19 | 9.12 µM | C=C1C(=O)O[C@@H]2C[C@@]3(C)[C@@H](O)C[C@@H](OC(=O)C(C)C)C(=C)[C@@H]3C[C@H]12 | Non-toxic
20 | 5.48 µM | C=C1C(=O)O[C@@H]2C[C@H](C)C(CCC(C)O)=CC[C@H]12 (some centres not stated) | Non-toxic
21 | 64.9 µM | CC(=O)CCC1=CC[C@@H]2[C@H](C)C(=O)O[C@@H]2C[C@@H]1C | Non-toxic
22 | 0.4 µM | C=C1C(=O)O[C@@H]2C[C@@H](C)[C@@H]3CCC(=O)[C@@]3(C)C[C@H]12 | Non-toxic
23 | 5.94 µM | C=C1C(=O)O[C@H]2C=C(C)[C@@H]3CC[C@](C)(O)[C@@H]3C[C@H]12 [4-EPI-ISOINUVISCOLIDE] | Non-toxic
24 | 2.18 µM | C=C1C(=O)O[C@H]2C[C@@H](C)[C@@H]3CCC(=O)[C@@]3(C)[C@@H](O)[C@H]12 [CARPESIOLIN] | Non-toxic
25 | 8.34 µM | CC(=O)O[C@H]1[C@H]2[C@H](C[C@@H](C)[C@@H]3CCC(=O)[C@]31C)OC(=O)[C@@H]2C [DIHYDROERGOLIDE] | Non-toxic
26 | 0.07 µM | C=C1C(=O)O[C@H]2C[C@@H](C)[C@@H]3CCC(=O)[C@@]3(C)[C@@H](OC(C)=O)[C@H]12 [ERGOLIDE] | Non-toxic
27 | 0.11 µM | C=C1C(=O)O[C@@H]2C[C@@]3(C)[C@@H](O)C[C@@H](O)C(=C)[C@@H]3C[C@H]12 [GRANILIN] | Non-toxic
28 | 1.17 µM | C=C1C(=O)O[C@@H]2C[C@@]3(C)CCC[C@H](C)C3=C[C@H]12 [HELENINE] | Non-toxic
29 | 9.64 µM | C=C1C(=O)O[C@H]2CC(=C)[C@H]3CC[C@@](C)(O)[C@@H]3C[C@H]12 [INUVISCOLIDE] | Non-toxic
30 | 15.8 µM | C=C1C(=O)O[C@H](CC(C)=O)[C@@H]1CC1=C(C)CCC1=O [POSTIA SECOGUAIANOLIDE] | Non-toxic
31 | 9.89 µM | C=C1C(=O)O[C@H]2C[C@@H](C)[C@@H]3CC[C@H](O)[C@@]3(C)C[C@H]12 [PSEUDOGUAIANOLIDE] | Non-toxic
32 | 7.14 µM | C=C1C(=O)O[C@@H]2C[C@H](C)C(CCC(C)=O)=CC[C@H]12 [TOMENTOSIN] | Non-toxic
33 | 12.9 µM | C=C1C(=O)O[C@H]2C[C@H](C)[C@@H]3CC(=O)C(C)=C3C[C@H]12 [XERANTOLIDE] | Non-toxic

Row | Structure (SMILES) | IC50 [2] | Activity [1]
34 | N=C(N)NN [PIMAGEDINE] | 0.2 µM | –
